The numbers were not newly measured in PubChem BioAssay AID1259410 (Chemical Carcinogenesis Research Information System (CCRIS), 2018), which cites them from elsewhere.

The subject of the series is rodent tumor promotion studies, tumor incidence. Briefly: CCRIS tumor promotion studies.

Consider `CC(=O)[O-].CC(=O)[O-].[OH-].[OH-].[OH-].[OH-].[Pb+2].[Pb+2].[Pb+2]`, for which the outcome is reported as “kidney: renal cell tumor” (Carcinogen: N-ETHYL-N-(2-HYDROXYETHYL)NITROSAMINE, Doses [Carcinogen]: 0.1% IN DRINKING WATER FOR 1 WK, Doses [Promoter]: 0.1% IN DIET FOR 35 WK, Route [Carcinogen]: ORAL, Route [Promoter]: ORAL, Species: RAT, Strain/Sex: F344/MALE) and “kidney: adenoma, adenocarcinoma” (Carcinogen: N-ETHYL-N-(2-HYDROXYETHYL)NITROSAMINE, Doses [Carcinogen]: 500 PPM IN DIET FOR TWO WK, Doses [Promoter]: 1000 PPM IN DIET FOR 20 WK, Route [Carcinogen]: ORAL, Route [Promoter]: ORAL, Species: RAT, Strain/Sex: WISTAR).
For the compound `Oc1ccccc1O`, the outcome is, setting by setting: (Carcinogen: DIETHYLNITROSAMINE, 55-18-5, N-METHYL-N-NITROSOUREA, 684-93-5, 1,2-DIMETHYLHYDRAZINE, 540-73-8, N-BUTYL-N-(4-HYDRO, Carcinogen: DIETHYLNITROSAMINE, 55-18-5, N-METHYL-N-NITROSOUREA, 684-93-5, 1,2-DIMETHYLHYDRAZINE, 540-73-8, N-BUTYL-N-(4-HYDRO, Doses [Carcinogen]: 100 MG/KG BW DEN ONCE THEN 20 MG/KG BW MNU 1/D FOR 4 D FOLLOWED BY 40 MG/KG BW DMH 1/D FOR 4 D, 0.05% BHBN IN DRINKING W, Doses [Promoter]: 0, 0.8% IN DIET FOR 24 WK BEGINNING 3 D POST CARCINOGEN TREATMENT (STUDY DURATION: 28 WK), Route [Carcinogen]: INTRAPERITONEAL, INTRAPERITONEAL, SUBCUTANEOUS, ORAL, Route [Carcinogen]: INTRAPERITONEAL, INTRAPERITONEAL, SUBCUTANEOUS, ORAL, Route [Promoter]: ORAL, Species: RAT, Strain/Sex: F344/MALE) “forestomach: papilloma, squamous cell carcinoma; glandular stomach: adenoma, ade”; (Carcinogen: DIETHYLNITROSAMINE, 55-18-5, N-METHYLNITROSOUREA, 684-93-5, 1,2-DIMETHYLHYDRAZINE, 540-73-8, N-BUTYL-N-(4-HYDROXYBUTYL)N, Carcinogen: DIETHYLNITROSAMINE, 55-18-5, N-METHYLNITROSOUREA, 684-93-5, 1,2-DIMETHYLHYDRAZINE, 540-73-8, N-BUTYL-N-(4-HYDROXYBUTYL)N, Doses [Carcinogen]: 100 MG/KG BW DEN ONCE FOLLOWED BY 20 MG/KG BW MNU 2/WK FOR 2 WK THEN 40 MG/KG BW DMH 2/WK FOR THE NEXT 2WK, 0.05% BBN IN, Doses [Promoter]: 0, 0.16% IN DIET FOR 24 WK BEGINNING POST CARCINOGEN TREATMENT (STUDY DURATION: 28 WK), Route [Carcinogen]: INTRAPERITONEAL, INTRAPERITONEAL, SUBCUTANEOUS, ORAL, Route [Carcinogen]: INTRAPERITONEAL, INTRAPERITONEAL, SUBCUTANEOUS, ORAL, Route [Promoter]: ORAL, Species: RAT, Strain/Sex: F344/MALE) “forestomach: papilloma”; (Carcinogen: DIETHYLNITROSAMINE, 55-18-5, N-METHYLNITROSOUREA, 684-93-5, DIHYDROXY-DI-N- PROPYLNITROSAMINE, 53609-64-6, Carcinogen: DIETHYLNITROSAMINE, 55-18-5, N-METHYLNITROSOUREA, 684-93-5, DIHYDROXY-DI-N- PROPYLNITROSAMINE, 53609-64-6, Doses [Carcinogen]: 100 MG/KG/BW DEN ONCE AT BEGINNING OF STUDY THEN 20 MG/KG/BW MNU ONCE ON D 2, 5, 8 AND 11 OF STUDY FOLLOWED BY 0.1% DHPN, Doses [Promoter]: 0, 0.8% IN DIET BEGINNING POST CARCINOGEN TREATMENT AND CONTINUING FOR DURATION OF STUDY (STUDY DURATION: 20 WK), Route [Carcinogen]: INTRAPERITONEAL, INTRAPERITONEAL, ORAL, Route [Carcinogen]: INTRAPERITONEAL, INTRAPERITONEAL, ORAL, Route [Promoter]: ORAL, Species: RAT, Strain/Sex: F344/MALE) “forestomach: squamous cell papilloma”; (Carcinogen: METHYL-N-AMYLNITROSAMINE, 13256-07-0, Doses [Carcinogen]: 25 MG/KG AT WK 0, WK 1, AND WK 2 (TOTAL 3 TREATMENTS), Doses [Promoter]: 0, 0.8% IN DIET FOR 49 WK BEGINNING 1 WK POST CARCINOGEN DOSE (STUDY DURATION: 5 WK), Route [Carcinogen]: INTRAPERITONEAL, Route [Promoter]: ORAL, Species: RAT, Strain/Sex: F344/MALE) “tongue: papilloma; esophagus: carcinoma”; (Carcinogen: N-METHYL-N'-NITRO-N-NITROSOGUANIDINE, 70-25-7, Doses [Carcinogen]: 150 MG/KG ONCE, Doses [Promoter]: 0, 0.8% IN DIET BEGINNING 1 WK POST CARCINOGEN DOSE (STUDY DURATION: 52 WK), Route [Carcinogen]: GAVAGE, Route [Promoter]: ORAL, Species: RAT, Strain/Sex: F344) “forestomach: carcinoma; glandular stomach: adenocarcinoma”; (Carcinogen: N-METHYL-N-NITROSOUREA, 684-93-5, Doses [Carcinogen]: 120 PPM IN DRINKING WATER FOR 1-WK PERIODS EVERY OTHER WEEK FOR A TOTAL OF 3 WK OF TREATMENT, Doses [Promoter]: 0, 0.05, 0.2, 0.8% IN DIET FOR 30 WK BEGINNING POST CARCINOGEN TREATMENT (STUDY DURATION: 35 WK), Doses [Promoter]: 0, 0.05, 0.2, 0.8% IN DIET FOR 30 WK BEGINNING POST CARCINOGEN TREATMENT (STUDY DURATION: 35 WK), Route [Carcinogen]: ORAL, Route [Promoter]: ORAL, Species: MOUSE, Strain/Sex: BALB/MALE) “glandular stomach: adenoma”. In addition, the outcome (Carcinogen: N-METHYL-N-NITROSOUREA, 684-93-5, Doses [Carcinogen]: 120 PPM IN DRINKING WATER FOR 1-WK PERIODS EVERY OTHER WK FOR A TOTAL OF 3 WK OF TREATMENT, Doses [Promoter]: 0, 0.8% IN DIET FOR 30 WK BEGINNING POST CARCINOGEN TREATMENT (STUDY DURATION: 35 WK), Route [Carcinogen]: ORAL, Route [Promoter]: ORAL, Species: MOUSE, Strain/Sex: BALB/MALE) is recorded as “glandular stomach: adenocarcinoma”.
In the case of `Cc1ccc(C)c(O)c1`, the outcome (Carcinogen: 7,12-DIMETHYLBENZ(A)ANTHRACENE, Doses [Carcinogen]: TOP, Route [Carcinogen]: DERMAL, Route [Promoter]: DERMAL, Species: MOUSE, Strain/Sex: FEMALE) is reported as “integumentary system (skin)”.
Regarding `CCOc1ccc(NC(C)=O)cc1`, the outcome reads like this: (Carcinogen: DIHYDROXY-DI-N-PROPYLNITROSAMINE, 53609-64-6, URACIL, 66-22-8, Carcinogen: DIHYDROXY-DI-N-PROPYLNITROSAMINE, 53609-64-6, URACIL, 66-22-8, Doses [Carcinogen]: 0.1% DHPN IN DRINKING WATER AND 3% URACIL IN THE DIET FOR 4 WK, Doses [Promoter]: 0, 2% IN DIET BEGINNING 1 WK POST CARCINOGEN TREATMENT AND CONTINUING FOR 35 WK (STUDY DURATION: 40 WK), Route [Carcinogen]: ORAL, ORAL, Route [Promoter]: ORAL, Species: RAT, Strain/Sex: F344/MALE) “kidney: adenoma or adenocarcinoma; urinary bladder: papilloma”; (Carcinogen: N-BUTYL-N-(4-HYDROXYBUTYL)NITROSAMINE, 3817-11-6, Doses [Carcinogen]: 0.05% IN DRINKING WATER FOR 4 WK, Doses [Promoter]: 0, 2% IN DIET FOR 8 WK AND 3 WK WITH A 4 WK INTERVAL BETWEEN TREATMENTS ADMINISTERED PRIOR TO CARCINOGEN TREATMENT (STUD, Route [Carcinogen]: ORAL, Route [Promoter]: ORAL, Species: MOUSE, Strain/Sex: NON/SHI/MALE) “renal pelvis: carcinoma”; (Carcinogen: N-BUTYL-N-(4-HYDROXYBUTYL)NITROSAMINE, Doses [Carcinogen]: 0.01, 0.05% IN DRINKING WATER FOR 4 WK, Doses [Promoter]: 2.5% IN DIET FOR 30 WK FOLLOWED BY CONTROL DIET FOR 6 WK, Route [Carcinogen]: ORAL, Route [Promoter]: ORAL, Species: RAT, Strain/Sex: WISTAR/MALE) “urinary bladder: papilloma, carcinoma”.
Consider `CCCCCCCCCCCCCCCCCC(=O)O[C@@]12C[C@@H](C)[C@@]3(O)[C@@H](C=C(CO)C[C@]4(O)C(=O)C(C)=C[C@@H]34)[C@@H]1C2(C)C`, for which the outcome (Carcinogen: 7,12-DIMETHYLBENZ[A]ANTHRACENE, 57-97-6, Doses [Carcinogen]: 100 NMOL ONCE, Doses [Promoter]: 0, 100 NMOL 2/WK FOR 39 WK (STUDY DURATION: 39 WK), Route [Carcinogen]: DERMAL, Route [Promoter]: DERMAL, Species: MOUSE, Strain/Sex: NMRI) is “skin: tumor”.
Regarding `CCCC(C)C1(CC)C(=O)NC(=O)NC1=O` (configuration not stated), the outcome (Carcinogen: N-NITROSODIETHYLAMINE, 55-18-5, Doses [Carcinogen]: 75 MG/KG BW IN 0.85% SALINE ONCE, Doses [Promoter]: 0, 485 PPM IN DIET FOR DURATION OF STUDY BEGINNING 2 WK POST CARCINOGEN DOSE (STUDY DURATION: 78 WK), Route [Carcinogen]: INTRAPERITONEAL, Route [Promoter]: ORAL, Species: RAT, Strain/Sex: F344/MALE) is “liver: carcinoma, adenoma”.
As to `CCC(C(=O)NC(N)=O)c1ccccc1` (configuration not stated), the outcome (Carcinogen: N-NITROSODIETHYLAMINE, 55-18-5, Doses [Carcinogen]: 75 MG IN STERILE SALINE ONCE, Doses [Promoter]: 0, 444 PPM IN DIET BEGINNING 2 WK POST CARCINOGEN DOSE AND CONTINUING FOR DURATION OF STUDY (STUDY DURATION: 78 WK), Route [Carcinogen]: INTRAPERITONEAL, Route [Promoter]: ORAL, Species: RAT, Strain/Sex: F344/MALE) is on record as “liver: hepatocellular adenoma”.
On to `O=C1c2c(O)cccc2Cc2cccc(O)c21`, for which the outcome (Carcinogen: 7,12-DIMETHYLBENZ(A)ANTHRACENE, Doses [Carcinogen]: TOP, Route [Carcinogen]: DERMAL, Route [Promoter]: DERMAL, Species: MOUSE, Strain/Sex: MALE,FEMALE) is given as “integumentary system (skin)”.
